Measured values from patent US20240360361A1, “PIPERAZINE BIS-UREA AND BIS-THIOUREA-BASED CORROSION INHIBITOR COMPOUNDS FOR STEEL PROTECTION” (QATAR UNIVERSITY, priority 2023, published 2024).
Several values for one entry are separate records, joined by “and”; a condition that tells them apart may be missing. Equal entries are not always repeated.

Columns and labels:
[1] = AC impedance of C-steel in 5M HCl, three-electrode cell; parameters: unit not given here; settings: 200 ppm inhibitor
Description: (§1) Electrochemical experiments were carried out using the three-electrode cell assembly (FIG. 4). Tafel and AC impedance measurements were obtained to elucidate the corrosion mechanisms and understand the interactions at the solution-surface interface. The effect of adding 10 to 200 ppm Inhibitor 2 on the C-steel corrosion in 5M HCl solution was determined by AC impedance and Tafel curves (FIG. 5 and FIG. 6).
(§2) Furthermore, electrochemical parameters describing the kinetics of the corrosion process were acquired following the Tafel extrapolation method to fit the curves of FIG. 6. […] Inhibitor 2 successfully achieved 95% efficiency in the highly corrosive condition of 5M HCl at a tolerable quantity of only 200 ppm concentration.

[2] = Tafel extrapolation of C-steel in 5M HCl, three-electrode cell
Description: (§3) Corrosion inhibition efficiency (IE % or r %) is a measure of the efficiency of an inhibitor to effectively decrease a corrosion rate. Corrosion inhibition efficiency may be measured with the Tafel extrapolation of potentiodynamic polarization (PDP).
as §1, §2

[3] = AC impedance of carbon steel in 1M HCl; settings: 200 ppm inhibitor
Text: (§4) To investigate the effect of Inhibitor 1 on corrosion mechanisms, electrochemical measurements were obtained using Tafel and A.C. impedance experiments. FIGS. 1 and 2 show Tafel and AC impedance curves of carbon steel after adding 50 to 200 ppm of Inhibitor 1 to 1M HCl solution.
(§5) The Tafel extrapolation method was used to fit the curves and obtain corrosion parameters. […] The lowest reported current density at 200 ppm concentration was 4.5 μA·cm^−2, […] than 155 μA·cm^−2 recorded for blank 1M HCl. […] The charge transfer resistance reached the maximum of 1430 Ω·cm^2 at 200 ppm and Inhibitor 1 yielded around 93% efficiency after enhancing it from 116 Ω·cm^2 for the blank solution. Inhibitor 1 is a highly efficient corrosion inhibitor even at low concentrations; at concentrations of 50 ppm and 75 ppm, it yielded an 82% and 90% efficiency, respectively.

[4] = Tafel extrapolation (potentiodynamic polarization) of carbon steel in 1M HCl
Text: as §3, §4, §5

O=[N+]([O-])c1ccc(NC(=S)NCCCN2CCN(CCCNC(=S)Nc3ccc([N+](=O)[O-])cc3)CC2)cc1 [Inhibitor 2]
Charge transfer resistance (RCT) [1]: 83.4 | Corrosion rate ([2]; 200 ppm inhibitor): 46 mils · year^−1 | Inhibition Efficiency % ([2]; 200 ppm inhibitor): 95%

O=C(NCCCN1CCN(CCCNC(=O)Nc2ccc([N+](=O)[O-])cc2)CC1)Nc1ccc([N+](=O)[O-])cc1 [Inhibitor 1]
Corrosion rate ([2]; 10 ppm inhibitor): 360 mils · year^−1 | Current density ([2]; 10 ppm inhibitor): 787 μA · cm^−2 | Inhibition Efficiency % ([2]; 10 ppm inhibitor): 57% | Corrosion rate ([2]; 50 ppm inhibitor): 196 mils · year^−1 | Current density ([2]; 50 ppm inhibitor): 429 μA · cm^−2 | Inhibition Efficiency % ([2]; 50 ppm inhibitor): 77% | Corrosion rate ([2]; 100 ppm inhibitor): 96 mils · year^−1 | Current density ([2]; 100 ppm inhibitor): 209 μA · cm^−2 | Inhibition Efficiency % ([2]; 100 ppm inhibitor): 89% | Corrosion rate ([2]; 200 ppm inhibitor): 46 mils · year^−1 | Current density ([2]; 200 ppm inhibitor): 100 μA · cm^−2 | Inhibition Efficiency % ([2]; 200 ppm inhibitor): 95% | Reduction of current density versus 5M HCl blank ([2]; 200 ppm inhibitor): about 18.5 fold | Charge transfer resistance [3]: 1430 Ω·cm^2 | Efficiency from charge transfer resistance (AC impedance) [3]: around 93% | % Inhibition Efficiency ([4]; 50 ppm inhibitor): 82% | Corrosion rate ([4]; 50 ppm inhibitor): 13 mils · year^−1 | Current density ([4]; 50 ppm inhibitor): 29 μA · cm^−2 | % Inhibition Efficiency ([4]; 75 ppm inhibitor): 90% | Corrosion rate ([4]; 75 ppm inhibitor): 6.8 mils · year^−1 | Current density ([4]; 75 ppm inhibitor): 15 μA · cm^−2 | % Inhibition Efficiency ([4]; 100 ppm inhibitor): 92% | Corrosion rate ([4]; 100 ppm inhibitor): 5.5 mils · year^−1 | Current density ([4]; 100 ppm inhibitor): 12 μA · cm^−2 | % Inhibition Efficiency ([4]; 200 ppm inhibitor): 97% | Corrosion rate ([4]; 200 ppm inhibitor): 2 mils · year^−1 and 2.0 mils · year^−1 | Current density ([4]; 200 ppm inhibitor): 4.5 μA · cm^−2
